Several values for one entry are separate records, joined by “and”; a condition that tells them apart may be missing. Equal values may be shown once.
How the values were obtained:
[1] = test system: human Nav1.2, Nav1.4, Nav1.5, Nav1.7; experiment: in vitro; format: cell-based; settings: human; all Nav subtypes, Ipeak and Ilate; read-out: pI/EC50, range over Nav currents
Protocol: (§1) Functional modulation of recombinant human voltage-gated sodium (Nav) channels exposed to marine PbTx-3 and brevenal was assessed by automated patch-clamp electrophysiology. Neuronal Nav1.2 (CNS) and Nav1.7 (PNS), in addition to muscle Nav1.4 (skeletal) and Nav1.5 (cardiac) sodium channels, were patch-clamped in mammalian cells. Whole-cell currents mediated by human Nav1.4 and Nav1.7 overexpressed in CHO-K1 cells, as well as human Nav1.2 and Nav1.5 overexpressed in HEK293 cells, were recorded at room temperature. Currents were elicited by 25 ms test pulses to −20 mV from a holding potential (Vh) of −120 mV, delivered for 5 min at 0.1 Hz, after each full-bath solution exchange to allow current amplitude and kinetics to reach a steady state.
(§2) Nav currents were evoked by a 25 ms test pulse to −20 mV (Vh = −120 mV; 0.1 Hz). Extracellular drug applications were performed by exchanging the whole bath with the test compounds diluted in extracellular solution to the required concentration during constant monitoring (25 ms, −20 mV, Vh −120 mV, 0.1 Hz). The control solution included 0.1% ethanol to account for non-specific vehicle effects. For concentration–response curves (CRCs), compounds at incrementally higher concentrations were applied to the extracellular bath solution and allowed to equilibrate for 5 min. The average current amplitude from the last five test pulses at each concentration was used for analysis.
(§3) APC data were analyzed using PatchMaster (Nanion) and Igor (WaveMetrics, Portland, OR, USA) software. Nav peak and late currents measured in the presence of increasing amounts of PbTx-3 and brevenal were divided by the current in control conditions (ICtr) to generate CRCs. […]

[2] = test system: human Nav channels (Nav1.2, Nav1.4, Nav1.5, Nav1.7); experiment: in vitro; format: cell-based
Protocol: as §1, §2, §3

[3] = test system: nodose ganglion neuron Navs; settings: cited from earlier work

SMILES | EC50 [1] [µM] | fold enhancement of late currents mediated by Nav1.2, Nav1.4, and Nav1.5 [2] | orders of magnitude more potent than brevenal at modulating Nav currents [2] | fold increase in the mean apparent single-channel open time [3] | lower conductance (sub-conductance) levels of PbTx-3-modified nodose Navs [3]
C=C/C=C\CC[C@H]1O[C@H]2CC[C@@]3(C)O[C@H]4[C@@H](O)C[C@@]5(C)O[C@@H](CC/C=C(C)/C(C)=C/C=O)[C@@H](C)C[C@H]5O[C@@H]4C[C@@H]3O[C@@H]2CC[C@@]1(C)O [Brevenal] | 0.01 to 10 | – | – | – | –
C=C(CO)C[C@@H]1C[C@H](O)[C@]2(C)OC3CC4OC5C[C@]6(C)O[C@]7(C)CCC8OC9C[C@]%10(C)OC%11C(C)=CC(=O)OC%11CC%10OC9C[C@@H](C)C8OC7CC6O[C@@]5(C)C/C=C\C4OC3CC2O1 (some centres unmarked) [PbTx-3, Brevetoxin PbTx-3] | – | 2–4 fold | 1–3 orders of magnitude | ~ 2 fold | 10.7 pS and 21.2 pS
